Measurements: BindingDB's records for doi:10.1016/j.bioorg.2015.06.006 (Hazara University, 2015)

Molecular target: Alpha-glucosidase MAL12 (Saccharomyces cerevisiae (strain ATCC 204508 / S288c), UniProt P53341)
Assay: Alpha-glucosidase Assay
Conditions: pH 6.8
Protocol: Total volume of 100 µL reaction mixture contained 70 µL 50 mM phosphate buffer pH 6.8, 10 µL test compound (0.5 mM in methanol) followed by the addition of 10 µL enzyme solution (0.057 units) in the buffer. The contents were mixed, pre-incubated for 10 min at 37 °C and pre-read at 400 nm. The reaction was initiated by the addition of 10 µL of 0.5 mM substrate (p-nitrophenyl glucopyranoside). After 30 min of incubation at 37 °C, absorbance of p-nitrophenol released was measured. Acarbose was used as positive control.

Chain of Alpha-glucosidase MAL12 (P53341 whole entry): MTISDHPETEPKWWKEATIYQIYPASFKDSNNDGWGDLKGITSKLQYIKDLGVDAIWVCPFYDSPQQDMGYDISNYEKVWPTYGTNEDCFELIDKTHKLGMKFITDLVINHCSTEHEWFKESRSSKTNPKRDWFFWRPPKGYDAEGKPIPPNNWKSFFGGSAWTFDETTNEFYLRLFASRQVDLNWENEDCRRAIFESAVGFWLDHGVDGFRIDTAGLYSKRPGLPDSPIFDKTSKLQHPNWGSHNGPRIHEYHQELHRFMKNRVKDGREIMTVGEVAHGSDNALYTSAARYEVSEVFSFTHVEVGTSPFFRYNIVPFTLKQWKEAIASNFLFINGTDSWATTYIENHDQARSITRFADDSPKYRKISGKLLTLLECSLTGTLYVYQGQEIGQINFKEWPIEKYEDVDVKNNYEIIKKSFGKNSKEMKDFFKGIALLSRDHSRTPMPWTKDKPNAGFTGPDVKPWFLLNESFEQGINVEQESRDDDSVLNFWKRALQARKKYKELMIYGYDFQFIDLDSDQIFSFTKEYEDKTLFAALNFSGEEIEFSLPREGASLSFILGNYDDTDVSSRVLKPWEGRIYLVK

## COc1ccc(-c2csc(N/N=C\c3cccc(/C=N/Nc4nc(-c5ccc(OC)cc5)cs4)c3)n2)cc1 [1-((E)-(2-(4-(4-Methoxyphenyl)thiazol-2-yl)hydrazono)-methyl)-3-((Z)-(2-(4-(4-methoxyphenyl)thiazol-2-yl)hydrazono)-methyl)benzene (18)]
  IC50: 55.4 µM

## Clc1ccc(-c2csc(N/N=C\c3cccc(/C=N/Nc4nc(-c5ccc(Cl)cc5)cs4)c3)n2)cc1 [1-((E)-(2-(4-(4-chlorophenyl)thiazol-2-yl)hydrazono)methyl)-3-((Z)-(2-(4-(4-chlorophenyl)thiazol-2-yl)hydrazono)methyl)benzene (9)]
  IC50: 68.5 µM

## Clc1ccc(-c2csc(N/N=C/c3ccc(/C=N/Nc4ncc(-c5ccc(Cl)cc5)s4)cc3)n2)cc1 [5-(4-chlorophenyl)-2-((E)-2-(4-((E)-(2-(4-(4-chlorophenyl)-thiazol-2-yl)hydrazono)methyl)benzylidene)hydrazinyl)thiazole (10)]
  IC50: 342 µM

## COc1ccc(-c2csc(N/N=C/c3ccc(/C=N/Nc4ncc(-c5ccc(OC)cc5)s4)cc3)n2)cc1 [5-(4-methoxyphenyl)-2-((E)-2-(4-((E)-(2-(4-(4-methoxyphenyl)thiazol-2-yl)hydrazono)methyl)benzylidene)-hydrazinyl)thiazole (19)]
  IC50: 226 µM

## CC(C)(C)c1cc(/C=N/Nc2nc(-c3ccc(Cl)cc3)cs2)cc(C(C)(C)C)c1O [(E)-2,6-Di-t-butyl-4-((2-(4-(4-Chlorophenyl)thiazole-2-yl)-hydrazono)methyl)-phenol (8)]
  IC50: 18.2 µM

## COc1ccc(-c2csc(N/N=C/c3cc(C(C)(C)C)c(O)c(C(C)(C)C)c3)n2)cc1 [(E)-2,6-Di-tert-butyl-4-((2-(4-(4-Methoxyphenyl)thiazol-2-yl)hydrazono)-methyl)phenol (17)]
  IC50: 123 µM

## C/C(=N\Nc1nc(-c2ccc(Cl)cc2)cs1)c1ccc([N+](=O)[O-])cc1Br [(E)-2-(2-(1-(2-Bromo-4-nitrophenyl)ethylidene)hydrazinyl)-4-(4-chlorophenyl)thiazole (2)]
  IC50: 43.3 µM

## Clc1ccc(-c2csc(N/N=C/c3ccc(OCc4ccccc4)cc3)n2)cc1 [(E)-2-(2-(4-(Benzyloxy)benzylidene)hydrazinyl)-4-(4-chlorophenyl)thiazole (7)]
  IC50: 36.8 µM

## COc1ccc(-c2csc(N/N=C/c3ccc(OCc4ccccc4)cc3)n2)cc1 [(E)-2-(2-(4-(Benzyloxy)benzylidene)hydrazinyl)-4-(4-methoxyphenyl)thiazole (16)]
  IC50: 99.2 µM

## COc1ccc(-c2csc(N/N=C/c3c4ccccc4cc4ccccc34)n2)cc1 [(E)-2-(2-(Anthracen-9-ylmethylene)hydrazinyl)-4-(4-methoxyphenyl)thiazole (13)]
  IC50: 192 µM

## COc1ccc(-c2csc(N/N=C/c3ccc(OC)c(O)c3)n2)cc1 [(E)-2-Methoxy-5-((2-(4-(4-methoxyphenyl)thiazol-2-yl)-hydrazono)methyl)-phenol (20)]
  IC50: 176 µM

## C/C(=N\Nc1nc(-c2ccc(Cl)cc2)cs1)c1ccc(N2CCCCC2)cc1 [(E)-4-(4-Chlorophenyl)-2-(2-(1-(4-(piperidin-1-yl)phenyl)-ethylidene)hydrazinyl)thiazole (4)]
  IC50: 388 µM

## O=[N+]([O-])c1ccccc1/C=N/Nc1nc(-c2ccc(Cl)cc2)cs1 [(E)-4-(4-Chlorophenyl)-2-(2-(2-nitrobenzylidene)hydrazinyl)-thiazole (3)]
  IC50: 239 µM

## O=[N+]([O-])c1cccc(/C=N/Nc2nc(-c3ccc(Cl)cc3)cs2)c1 [(E)-4-(4-Chlorophenyl)-2-(2-(3-nitrobenzylidene)hydrazinyl)-thiazole (1)]
  IC50: 220 µM

## Clc1ccc(-c2csc(N/N=C/c3ccc4ccccc4c3)n2)cc1 [(E)-4-(4-Chlorophenyl)-2-(2-(naphthalene-2-yl-methylene)hydrazinyl)thiazole (6)]
  IC50: 175 µM

## COc1ccc(-c2csc(N/N=C(\C)c3cccc([N+](=O)[O-])c3)n2)cc1 [(E)-4-(4-Methoxyphenyl)-2-(2-(1-(3-nitrophenyl)-ethylidene)hydrazinyl)thiazole (12)]
  IC50: 424 µM

## COc1ccc(-c2csc(N/N=C/c3ccc4ccccc4c3)n2)cc1 [(E)-4-(4-Methoxyphenyl)-2-(2-(naphthalen-2-yl-methylene)-hydrazinyl)thiazole (15)]
  IC50: 194 µM

## CN(C)c1ccc(/C=N/Nc2nc(-c3ccc(Cl)cc3)cs2)cc1 [(E)-4-((2-(4-(4-Chlorophenyl)thiazol-2-yl)hydrazono)methyl)-N,N-dimethyl-aniline (5)]
  IC50: 205 µM

## COc1ccc(-c2csc(N/N=C/c3ccc(N(C)C)cc3)n2)cc1 [(E)-4-((2-(4-(4-Methoxyphenyl)thiazol-2-yl)hydrazono)-methyl)-N,N-dimethylaniline (14)]
  IC50: 146 µM

## COc1ccc(-c2csc(N/N=C/c3ccc(O)c(O)c3)n2)cc1 [(E)-4-((2-(4-(4-Methoxyphenyl)thiazol-2-yl)hydrazono)-methyl)benzene-1,2-diol (21)]
  IC50: 46.4 µM

## COc1ccc(/C=N/Nc2nc(-c3ccc(Cl)cc3)cs2)cc1O [(E)-5-((2-(4-(4-Chlorophenyl)thiazole-2-yl)hydrazono)-methyl)-2-methoxy-phenol (11)]
  IC50: 176 µM
